Read-outs that look alike come from different tables or passages of the source.
Experiments:
spleen lymphocytes [1] = conditions: 7 days
Experimental: (§1) The purpose of this assay is to challenge lymphocytes in microcultures with one or more polyclonal mitogens at concentrations that will induce mitogenesis within 72 hours of stimulation.
(§2) In the mouse model, spleens are removed from different strains of mice and the spleen cells are teased free and suspended in RPMI-1640 tissue culture medium at a concentration of usually […]. These cells are dispensed at a concentration of 5.0×10^5 cells per microculture well in a 96 well flat bottom 96 well tissue culture plate. All testing of the compounds of this invention or mitogens are done in replicates of 10. The cells are then treated with PHA, Con-A, specific antigens, or buffer only. If in vitro testing is done, varying concentrations of the compounds of this invention or buffer only are added to the cells as well. After treatment with the mitogens and/or compounds of this invention, the cells are incubated for 72 hours. The response of these cells to mitogens and/or the compounds of this invention is assessed using ^14 C-thymidine labeling on the fourth day at a concentration of 0.01 μCi/well. The labeled cells are harvested using a lymphocyte harvestor and placed onto fibrous paper discs. A scintillation cocktail is added to vials containing the discs and the results are obtained using a LKB-liquid scintillation counter (Model 1216/Rackbeta II). The data is expressed as a ratio of the cpm of the mitogen stimulated group to the control (nonmitogen) treated group=lymphocyte stimulation index (LSI).
(§3) The lymphocyte stimulation assay may be performed directly on spleen cells obtained from various strains of mice not treated with the compounds of this invention or on lymphocytes obtained from human […]. […] Alternatively, the mice may be treated in vivo with the compounds of this invention by intraperitoneal multi-dose schedules, followed by sacrifice and harvesting spleen lymphocytes. These cells are then tested for their response to polyclonal mitogens or specific antigens used to immunize the mice. In this system however, no additional compound is added to the in vitro lymphocyte stimulation assay system.
Two strains of mice, C57BL/6 and BDF1 are treated for seven days with i.p. administration of either 25, 50, 100, 200, or 400 mg/kg of Cpd. 1 or just buffer. This is followed on the eighth day by a lymphocyte stimulation assay.

spleen lymphocytes [2] = conditions: for Lymphocyte Stimulation Index, Control (no mitogen): 100 mg/kg i.p.; for effect on mitogen response (in words): 100 mg/kg
Experimental: as §1, §2, §3
Three month old mice of the SJL/J strain, which are T-cell deficient, are treated with i.p. administration of 100, 200, or 400 mg/kg of Cpd. 1 or just buffer for four days. This is followed by a lymphocyte stimulation assay.
An in vivo lymphocyte stimulation assay was performed on SJL/J mice of different ages, either 2, 5, or 10 months. The mice received i.p. injections of either 100 mg/kg of Cpd. 1 or just buffer.

BSA antibody response = system: BSA antibody response
From the text: The effect of the compounds of this invention on the immune response to specific antigens involves immunization of mice with specific antigens such as bovine serum albumin (BSA) or keyhole limpet hemocyanin (KLH). Following immunization, it is possible to assess the cell-mediated or humoral (antibody) immune response to these antigens by various methods:
(2) Antibody response to soluble antigens such as BSA or KLH can be quantitated using a micro-ELISA solid phase heterogeneous immunoassay. The assay can be designed to quantitate class specific immunoglobulins (i.e., IgG or IgM).
The cut-off for the titer was the highest dilution of mouse serum yielding on O.D.≤0.1 when read on the MR-600 Dynatech micro-ELISA reader.
Mice of the C57BL/6 strain are given i.p. injections of either 50, 100, 200 or 400 mg/kg of Cpd. 1 or buffer for twelve days (days 1-12). An antigen, bovine serum albumin (BSA), is administered intraperitoneally with Freund's Complete Adjuvant (FCA) on days 1, 7 and 14. Blood samples are taken for assay of the antibody response on days 0, 5, 13, and 19.

FLC-745 target cells = assay: MLTC assay of cytotoxic lymphocyte (CTL) activity, FLC-745 target cells; format: cell-based, mouse, DBA/2
From the text: A mixed lymphocyte tumor culture (MLTC) immunoassay, used to determine the cytotoxic lymphocyte (CTL) activity employs lymphocytes from either immunized (sensitized) mice or DBA/2 tumor dormant state animals in various stages of the tumor dormant state (TDS). The assay employs L5178Y target cells labeled with ^51 Chromium and effector cells (sensitized lymphocytes) from the above-mentioned sources. Effector-target cell ratios will vary with different experimental conditions and may or may not include irradiated stimulator L5178Y cells. Results are expressed as % lysis of target cells based on ratio of cpm of test group over cpm of total release (maximum) both of which are corrected for spontaneous release of ^51 Cr. The assay can be performed as an 8 or 18 hour release assay.
An MLTC assay is performed to assess the CTL activity and tumor target cell specificity of Cpd. 1. Tumor dormant spleen cells and normal spleen cells of DBA/2 mice are used as effector cells. Irradiated L5178Y cells are used as stimulator cells. ^51 Cr-labeled L5178Y cells and FLC-745 cells are used as target cells. The effector/target ratios studied are 100:1, 30:1 and 10:1.

For `Cc1ccc(C2(O)C(=O)OC3C(O)COC32O)o1.Cc1ccc(C2(O)C(=O)OC3C(O)COC32O)o1.O=C1CCC(=O)O1` (stereo not shown) [Cpd. 1, 2-furylbutyrolactone:succinic anhydride], which “Lymphocyte Stimulation Index, Con-A” value (spleen lymphocytes [1]; 25 mg/kg i.p.) is on record?
Its value is 4.3.

And the “Lymphocyte Stimulation Index, Control (buffer, pH 8.05)” value (spleen lymphocytes [1]; 25 mg/kg i.p.)?
Its value is 0.8.

And the “Lymphocyte Stimulation Index, PHA” value (spleen lymphocytes [1]; 25 mg/kg i.p.)?
The value was 13.8.

What about the “Lymphocyte Stimulation Index, Con-A” value (spleen lymphocytes [1]; 50 mg/kg i.p.) of the same compound?
Its value is 21.6.

And the “Lymphocyte Stimulation Index, Control (buffer, pH 8.05)” value (spleen lymphocytes [1]; 50 mg/kg i.p.)?
Its value is 0.9.

What about the “Lymphocyte Stimulation Index, PHA” value (spleen lymphocytes [1]; 50 mg/kg i.p.) of the same compound?
Its value is 52.1.

What about the “Lymphocyte Stimulation Index, Con-A” value (spleen lymphocytes [1]; 100 mg/kg i.p.) of the same compound?
The value was 17.9.

What about the “Lymphocyte Stimulation Index, Control (buffer, pH 8.05)” value (spleen lymphocytes [1]; 100 mg/kg i.p.) of the same compound?
Its value is 0.7.

And the “Lymphocyte Stimulation Index, PHA” value (spleen lymphocytes [1]; 100 mg/kg i.p.)?
The value was 48.7.

What about the “Lymphocyte Stimulation Index, Con-A” value (spleen lymphocytes [1]; 200 mg/kg i.p.) of the same compound?
The value was 2.9.

And the “Lymphocyte Stimulation Index, Control (buffer, pH 8.05)” value (spleen lymphocytes [1]; 200 mg/kg i.p.)?
Its value is 0.8.

And the “Lymphocyte Stimulation Index, PHA” value (spleen lymphocytes [1]; 200 mg/kg i.p.)?
Its value is 7.8.

And the “Lymphocyte Stimulation Index, Con-A” value (spleen lymphocytes [1]; 400 mg/kg i.p.)?
Its value is 0.9.

What about the “Lymphocyte Stimulation Index, Control (buffer, pH 8.05)” value (spleen lymphocytes [1]; 400 mg/kg i.p.) of the same compound?
The value was 0.9.

And the “Lymphocyte Stimulation Index, PHA” value (spleen lymphocytes [1]; 400 mg/kg i.p.)?
The value was 1.1.

And the “Lymphocyte Stimulation Index, Control (no mitogen)” value (spleen lymphocytes [2]; age 2 months)?
The value was 2.3.

What about the “Lymphocyte Stimulation Index, Control (no mitogen)” value (spleen lymphocytes [2]; age 5 months) of the same compound?
Its value is 1.9.

And the “Lymphocyte Stimulation Index, Control (no mitogen)” value (spleen lymphocytes [2]; age 10 months)?
The value was 2.1.

What about the “effect on mitogen response (in words)” value (spleen lymphocytes [2]; age 2 months) of the same compound?
Its value is “decreased PHA versus increased Con-A response”.

What about the “effect on mitogen response (in words)” value (spleen lymphocytes [2]; age 5 months) of the same compound?
Its value is “depressed mitogenesis response to both PHA and Con-A”.

And the “effect on mitogen response (in words)” value (spleen lymphocytes [2]; age 10 months)?
Its value is “significant stimulation of both the PHA and Con-A mitogenic response”.

And the “Lymphocyte Stimulation Index, Con-A” value (spleen lymphocytes [2]; 400 mg/kg i.p., four days, three month old)?
Its value is 3.30.

What about the “Micro-ELISA Titer” value (BSA antibody response; 50 mg/kg i.p., Day 5) of the same compound?
Its value is “N/R”.

And the “Micro-ELISA Titer” value (BSA antibody response; 50 mg/kg i.p., Prebleed)?
The value was “N/R”.

What about the “antibody titer versus control (in words)” value (BSA antibody response; 50 mg/kg, day 19) of the same compound?
Its value is “A slight increase of antibody titer over the control”.

What about the “Micro-ELISA Titer” value (BSA antibody response; 100 mg/kg i.p., Day 5) of the same compound?
Its value is “N/R”.

What about the “Micro-ELISA Titer” value (BSA antibody response; 100 mg/kg i.p., Prebleed) of the same compound?
Its value is “N/R”.

And the “Micro-ELISA Titer” value (BSA antibody response; 200 mg/kg i.p., Day 5)?
The value was “N/R”.

What about the “Micro-ELISA Titer” value (BSA antibody response; 200 mg/kg i.p., Prebleed) of the same compound?
Its value is “N/R”.

What about the “Micro-ELISA Titer” value (BSA antibody response; 400 mg/kg i.p., Day 5) of the same compound?
Its value is “N/R”.

What about the “Micro-ELISA Titer” value (BSA antibody response; 400 mg/kg i.p., Prebleed) of the same compound?
The value was “N/R”.

What about the “antibody response versus control (in words)” value (BSA antibody response; 400 mg/kg, day 19) of the same compound?
The value was “the antibody responses to BSA are equal at the 0 mg/kg and 400 mg/kg dose”.

What about the “stimulation of antibody response (in words)” value (BSA antibody response; 50 and 100 mg/kg, day 13) of the same compound?
Its value is “only a slight amount of stimulation”.

And the “increase over controls of antibody titer (fold)” value (BSA antibody response; 100 and 200 mg/kg, day 19)?
Its value is 16 fold.

And the “stimulation of antibody response (fold)” value (BSA antibody response; 200 and 400 mg/kg, day 13)?
The value was “four-fold”.

What about the “% Lysis” value (FLC-745 target cells; E + D, E/T 10:1, TDS effectors, no stimulators) of the same compound?
The value was 0.7%.

What about the “% Lysis” value (FLC-745 target cells; E + D, E/T 30:1, TDS effectors, no stimulators) of the same compound?
The value was 4.6%.

And the “% Lysis” value (FLC-745 target cells; E + D, E/T 100:1, TDS effectors, no stimulators)?
The value was 6.6%.

What about the “% Lysis” value (FLC-745 target cells; E + S + D, E/T 10:1, TDS effectors + stimulators) of the same compound?
The value was 0.5%.

What about the “% Lysis” value (FLC-745 target cells; E + S + D, E/T 30:1, TDS effectors + stimulators) of the same compound?
Its value is 3.6%.

What about the “enhancement of CTL activity (in words)” value (FLC-745 target cells; FLC-745 target, TDS effectors with stimulator cells) of the same compound?
The value was “This effect is not observed in the FLC-745 target control system”.

And the “% Lysis” value (FLC-745 target cells; N + D, E/T 10:1, normal spleen cells, no stimulators)?
The value was -3.5%.

And the “% Lysis” value (FLC-745 target cells; N + D, E/T 30:1, normal spleen cells, no stimulators)?
The value was 0.9%.

And the “% Lysis” value (FLC-745 target cells; N + S + D, E/T 10:1, normal spleen cells + stimulators)?
Its value is -1.1%.

What about the “% Lysis” value (FLC-745 target cells; N + S + D, E/T 30:1, normal spleen cells + stimulators) of the same compound?
Its value is -0.8%.

And the “% Lysis” value (FLC-745 target cells; N + S + D, E/T 100:1, normal spleen cells + stimulators)?
Its value is 5.8%.
